From paper PMC9516332 (Frontiers in Oncology, 2022) come the findings set out here.

What all share (assay): Kinase panel profiling at 1 µmol/L (MSA or IMAP), percentage inhibition
What all share (type): biochemical

The target of experiment [1] is panel of 255 wild-type kinases (Homo sapiens, UniProt Q9HCP0). The conditions noted are these: kinase CK1γ1; 1 µmol/L single concentration; read-out: %-inhibition at 1 µmol/L, CK1γ1.
For experiment [2], the target named is panel of 255 wild-type kinases (Homo sapiens, UniProt Q04912). Particulars: kinase RON; 1 µmol/L single concentration; read-out: %-inhibition at 1 µmol/L, RON.
In experiment [3] the target is panel of 255 wild-type kinases (Homo sapiens, UniProt Q9UM73). The conditions noted are these: ALK kinase assay; 1 µmol/L single concentration; read-out: %-inhibition ALK.
For experiment [4], the target named is panel of 255 wild-type kinases (Homo sapiens, UniProt Q15759). Particulars: p38β; 1 µmol/L single concentration; read-out: %-inhibition, p38β.
Experiment [5] has as its target panel of 255 wild-type kinases (Homo sapiens, UniProt Q9UKE5). The conditions noted are these: kinase TNIK; 1 µmol/L single concentration; read-out: %-inhibition at 1 µmol/L, TNIK.
For experiment [6], the target named is panel of 255 wild-type kinases (Homo sapiens, UniProt O94804). The conditions noted are these: kinase LOK; 1 µmol/L single concentration; read-out: %-inhibition at 1 µmol/L, LOK.
Experiment [7] concerns the target panel of 255 wild-type kinases (Homo sapiens, UniProt Q13882). Particulars: BRK kinase assay; 1 µmol/L single concentration; read-out: %-inhibition BRK.
In experiment [8] the target is panel of 255 wild-type kinases (Homo sapiens, UniProt Q9H1R3). Particulars: kinase skMLCK; 1 µmol/L single concentration; read-out: %-inhibition at 1 µmol/L, skMLCK.
Experiment [9] deals with panel of 255 wild-type kinases (Homo sapiens, UniProt P41240). The conditions noted are these: kinase CSK; 1 µmol/L single concentration; read-out: %-inhibition at 1 µmol/L, CSK.
Experiment [10] deals with panel of 255 wild-type kinases (Homo sapiens, UniProt Q86Z02). Particulars: kinase HIPK1; 1 µmol/L single concentration; read-out: %-inhibition at 1 µmol/L, HIPK1.
Experiment [11] concerns the target panel of 255 wild-type kinases (Homo sapiens, UniProt P51957). The conditions noted are these: NEK4; 1 µmol/L single concentration; read-out: %-inhibition, NEK4.
For experiment [12], the target named is panel of 255 wild-type kinases (Homo sapiens, UniProt P78362). Particulars: kinase SRPK2; 1 µmol/L single concentration; read-out: %-inhibition at 1 µmol/L, SRPK2.
For experiment [13], the target named is panel of 255 wild-type kinases (Homo sapiens, UniProt Q16288). Particulars: kinase TRKC; 1 µmol/L single concentration; read-out: %-inhibition at 1 µmol/L, TRKC.
Experiment [14] has as its target T1, panel of 255 wild-type kinases (Homo sapiens, UniProt Q9BXA7).
T1 sequence (Q9BXA7 1-367): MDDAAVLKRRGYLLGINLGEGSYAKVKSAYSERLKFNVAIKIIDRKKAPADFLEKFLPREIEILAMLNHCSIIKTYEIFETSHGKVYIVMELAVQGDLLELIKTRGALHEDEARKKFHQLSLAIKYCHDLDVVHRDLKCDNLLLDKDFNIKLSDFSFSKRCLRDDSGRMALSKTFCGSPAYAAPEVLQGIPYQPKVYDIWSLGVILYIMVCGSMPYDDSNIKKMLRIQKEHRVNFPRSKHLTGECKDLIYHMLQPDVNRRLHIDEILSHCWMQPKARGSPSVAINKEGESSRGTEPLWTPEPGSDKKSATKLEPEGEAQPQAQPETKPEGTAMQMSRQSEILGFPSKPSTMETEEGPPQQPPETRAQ
The conditions noted are these: kinase TSSK1; 1 µmol/L single concentration; read-out: %-inhibition at 1 µmol/L, TSSK1.

Experiment [15] addresses T2, panel of 255 wild-type kinases (Homo sapiens, UniProt Q9HBY8).
T2 sequence (Q9HBY8 1-367): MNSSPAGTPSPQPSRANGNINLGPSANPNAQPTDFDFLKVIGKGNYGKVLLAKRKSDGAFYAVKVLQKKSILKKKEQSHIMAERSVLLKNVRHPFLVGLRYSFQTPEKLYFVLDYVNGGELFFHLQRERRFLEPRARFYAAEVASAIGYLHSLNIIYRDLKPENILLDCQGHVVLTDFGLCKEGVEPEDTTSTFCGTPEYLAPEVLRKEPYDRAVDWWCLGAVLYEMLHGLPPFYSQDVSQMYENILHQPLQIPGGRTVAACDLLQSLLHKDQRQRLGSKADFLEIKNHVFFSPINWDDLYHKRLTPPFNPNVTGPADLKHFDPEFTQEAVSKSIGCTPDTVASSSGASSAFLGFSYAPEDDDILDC
Particulars: kinase SGK2; 1 µmol/L single concentration; read-out: %-inhibition at 1 µmol/L, SGK2.

Experiment [16] addresses panel of 255 wild-type kinases (Homo sapiens, UniProt P29317). The conditions noted are these: kinase EPHA2; 1 µmol/L single concentration; read-out: %-inhibition at 1 µmol/L, EPHA2.
Experiment [17] has as its target panel of 255 wild-type kinases (Homo sapiens, UniProt Q13554). The conditions noted are these: CaMK2β kinase assay; 1 µmol/L single concentration; read-out: %-inhibition CaMK2β.
The target in experiment [18] is panel of 255 wild-type kinases (Homo sapiens, UniProt Q7KZI7). The conditions noted are these: MARK2; 1 µmol/L single concentration; read-out: %-inhibition, MARK2.

`FC(F)(F)c1ccc(CNc2ccc(Cc3c[nH]c4ncc(Cl)cc34)cn2)cn1` [pexidartinib]: the inhibition at 1 µM came to 10% in experiment [1]; 23% in [2]; 11% in experiment [3]; 0.844% in experiment [4]; 20% in experiment [5]; 25% in experiment [6]. In addition, the inhibition at 1 µM in experiment [7] was 15%; in [8], 12%; in experiment [9], 9%; in [10] it was 4.72%; in experiment [11], 2.69%; in experiment [12], -1.19%. Further, the inhibition at 1 µM in experiment [13] was 81%; in experiment [14] it was 12%; in experiment [15], 8%; in experiment [16], 7.59%; in experiment [17], 3%; in [18], 5.3%.
Turning to `CCc1nc(C(N)=O)c(Nc2ccc(N3CCC(N4CCN(C)CC4)CC3)c(OC)c2)nc1NC1CCOCC1` [gilteritinib], the inhibition at 1 µM came to 11% in [1]; 98% in experiment [2]; 101% in experiment [3]; 6% in [4]; 94% in experiment [5]; 100% in experiment [6]. Further, the inhibition at 1 µM in experiment [7] was determined as 98%; in experiment [8], 5%; in experiment [9], 23%; in [10], 71%; in experiment [11], 50%; in experiment [12], 12%. Moreover, the inhibition at 1 µM was 100% in experiment [13]; 95% in experiment [14]; -3.51% in experiment [15]; 66% in experiment [16]; 24% in [17]; 43% in experiment [18].
In the case of `O=C(Nc1cnn2ccc(N3CCC[C@@H]3c3cc(F)ccc3F)nc12)N1CC[C@H](O)C1` [larotrectinib], the inhibition at 1 µM is -4.74% in [1]; 2.82% in experiment [2]; 7% in [3]; -0.0712% in [4]; 1.8% in experiment [5]; 5.3% in experiment [6]. In addition, the inhibition at 1 µM in experiment [7] is 4.64%; in experiment [8], -6%; in [9] it was -5%; in experiment [10], -3.73%; in [11] it was 0.695%; in experiment [12] it was -3%. For the same molecule, the inhibition at 1 µM was 101% in experiment [13]; 4% in experiment [14]; -4% in [15]; 0% in experiment [16]; 0.902% in [17]; -19% in experiment [18].
